According to article doi:10.1101/382226v2 (biorxiv, 2019):

Columns and labels:
NOX4 = biological target: T1, NOX4 (Homo sapiens, UniProt Q9NPH5); assay: Amplex Red/HRP H2O2 fluorescence, intact transfected HEK293 cells; format: cell-based
T1 sequence (Q9NPH5 1-578): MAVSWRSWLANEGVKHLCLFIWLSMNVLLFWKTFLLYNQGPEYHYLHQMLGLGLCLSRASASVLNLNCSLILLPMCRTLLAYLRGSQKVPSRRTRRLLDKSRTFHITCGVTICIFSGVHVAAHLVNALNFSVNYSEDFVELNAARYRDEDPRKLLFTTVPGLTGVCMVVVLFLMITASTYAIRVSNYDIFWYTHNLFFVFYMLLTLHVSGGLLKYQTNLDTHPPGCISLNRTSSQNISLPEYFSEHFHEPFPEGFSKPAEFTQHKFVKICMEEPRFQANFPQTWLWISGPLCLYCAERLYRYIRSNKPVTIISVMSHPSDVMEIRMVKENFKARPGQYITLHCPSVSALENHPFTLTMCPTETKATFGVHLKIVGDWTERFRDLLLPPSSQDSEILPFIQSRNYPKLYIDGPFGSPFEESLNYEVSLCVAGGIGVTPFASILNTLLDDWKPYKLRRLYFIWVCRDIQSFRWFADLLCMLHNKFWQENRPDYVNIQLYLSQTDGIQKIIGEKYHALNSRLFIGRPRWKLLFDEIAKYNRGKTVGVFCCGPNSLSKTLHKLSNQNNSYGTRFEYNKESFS
T1 sequence (P13498 2-195 partner): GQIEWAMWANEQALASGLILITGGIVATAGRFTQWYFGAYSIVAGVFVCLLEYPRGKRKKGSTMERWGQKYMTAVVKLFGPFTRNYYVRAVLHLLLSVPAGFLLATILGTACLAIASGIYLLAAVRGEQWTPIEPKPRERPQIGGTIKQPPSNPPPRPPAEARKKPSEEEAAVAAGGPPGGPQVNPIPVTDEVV

NOX1 = NOX1 (Homo sapiens, UniProt Q9Y5S8); assay: luminol/HRP chemiluminescence, intact transfected HEK293 cells; format: cell-based
NOX1, sequence (Q9Y5S8 whole entry, one chain of several): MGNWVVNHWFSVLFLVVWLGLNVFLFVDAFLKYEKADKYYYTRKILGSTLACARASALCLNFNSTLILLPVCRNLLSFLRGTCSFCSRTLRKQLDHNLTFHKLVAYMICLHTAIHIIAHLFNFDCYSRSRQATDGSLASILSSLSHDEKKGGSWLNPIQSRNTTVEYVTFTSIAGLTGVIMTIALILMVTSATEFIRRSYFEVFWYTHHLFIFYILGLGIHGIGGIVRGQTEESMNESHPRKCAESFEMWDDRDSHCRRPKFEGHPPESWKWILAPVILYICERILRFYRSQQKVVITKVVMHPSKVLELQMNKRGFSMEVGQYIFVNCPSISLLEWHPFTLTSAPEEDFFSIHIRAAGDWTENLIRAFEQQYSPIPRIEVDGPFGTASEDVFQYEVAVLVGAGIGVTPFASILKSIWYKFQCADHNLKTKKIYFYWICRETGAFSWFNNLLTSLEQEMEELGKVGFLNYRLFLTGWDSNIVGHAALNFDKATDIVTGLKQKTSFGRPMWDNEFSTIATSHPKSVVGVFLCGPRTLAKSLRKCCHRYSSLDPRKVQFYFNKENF
NOX1, sequence (Q8NFA2 whole entry partner, one chain of several): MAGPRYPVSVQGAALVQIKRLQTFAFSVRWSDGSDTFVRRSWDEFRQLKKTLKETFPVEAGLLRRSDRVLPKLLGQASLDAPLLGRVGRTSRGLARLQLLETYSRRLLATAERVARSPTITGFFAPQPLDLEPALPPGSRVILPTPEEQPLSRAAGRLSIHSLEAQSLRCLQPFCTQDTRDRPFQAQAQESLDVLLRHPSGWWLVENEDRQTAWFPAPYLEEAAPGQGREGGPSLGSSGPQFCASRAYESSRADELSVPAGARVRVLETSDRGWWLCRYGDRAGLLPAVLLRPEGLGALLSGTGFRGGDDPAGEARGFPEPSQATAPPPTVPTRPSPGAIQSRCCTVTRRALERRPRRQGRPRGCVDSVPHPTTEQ
NOX1, sequence (Q86UR1 whole entry partner, one chain of several): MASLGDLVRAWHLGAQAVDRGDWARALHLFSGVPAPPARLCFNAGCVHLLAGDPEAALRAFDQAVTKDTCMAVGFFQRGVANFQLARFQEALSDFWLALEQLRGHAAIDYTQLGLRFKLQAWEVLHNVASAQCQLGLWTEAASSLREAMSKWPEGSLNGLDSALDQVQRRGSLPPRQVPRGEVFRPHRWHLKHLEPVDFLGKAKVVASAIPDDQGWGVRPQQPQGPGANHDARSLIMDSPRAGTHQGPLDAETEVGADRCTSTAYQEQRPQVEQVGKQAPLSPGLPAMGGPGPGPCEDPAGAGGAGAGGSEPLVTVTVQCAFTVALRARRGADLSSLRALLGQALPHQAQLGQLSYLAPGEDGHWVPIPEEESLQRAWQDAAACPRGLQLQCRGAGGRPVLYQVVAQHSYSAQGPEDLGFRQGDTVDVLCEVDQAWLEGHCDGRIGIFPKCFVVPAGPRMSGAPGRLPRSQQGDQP

**Q.** How did the IC50 (NOX4) turn out when `c1ccc2c(c1)Nc1nc3ccccc3nc1N2` [ML090, 5,12-Dihydroquinoxalino(2,3-B)quinoxaline] was run?
**A.** 20.4 nM

**Q.** And the IC50 (NOX1)?
**A.** 25.1 nM
